# From the METLIN SMRT retention time set (Domingo-Almenara et al. 2019)
# Test: gradient 5% acetonitrile 3 min, to 50% in 2 min, to 85% in 15 min, held 3 min, 100 µL/min
# Conditions: column: Zorbax Extend-C18 2.1 x 50 mm; eluents: water / acetonitrile, 0.1% formic acid
# Method in brief: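 The system's dead and dwell volumes were 40 μL and 900 μL, with a Zorbax Extend-C18 column (2.1 × 50 mm, 1.8 μm) run at 100 μL/min in water and acetonitrile containing 0.1% formic acid each. Pure standards were analyzed in mixtures of ~100 molecules by HPLC–quadrupole time-of-flight mass spectrometry in positive and negative ionization mode. Retention time was assigned from computationally picked, manually inspected adduct peaks.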
row,SMILES,RP-LC retention time
1,COCCc1noc(-c2cnc3nc(C)ccc3c2Nc2cccc(C)c2)n1,728 s
2,CCN(Cc1ccc(F)cc1)Cc1cc(=O)n2cc(Cl)ccc2n1,578 s
3,CCCN1C(=O)c2c(C(=O)NCc3cccc(F)c3)ncn2CC1(C)C(=O)NC1CCCC1 (centres undefined),821 s
4,Cc1nnc([C@@H]2CC(F)(F)CN2C(=O)COc2ccc(Cl)cc2)o1,779 s
5,COc1cc(OC)c(NC(=O)Nc2cc(C)on2)cc1Cl,865 s
6,O=C1CCCc2cc(S(=O)(=O)NCC3CCN(Cc4ccc(F)cc4)CC3)ccc2N1,603 s
7,O=C(CN1CCc2ccccc2C1C(=O)N1CCCCC1)NCc1cccc(Cl)c1 (centres undefined),913 s
8,COc1ccc(-c2noc(C3CCCN3C(=O)Nc3ccc(OC)c(OC)c3)n2)cc1 (centres undefined),952 s
9,Cc1ccc(Cn2c(N3CCCC(C(=O)Nc4cccc(C)c4)C3)nc3ccsc3c2=O)cc1 (centres undefined),1080 s
10,CC1(C)CC(=O)c2cn(-c3ccc(Cl)cc3)c(=O)c(C(=O)N3CCCC3)c2C1,786 s
11,CC(NC(=O)c1ccco1)C(=O)NCc1nn(C)c2ccccc12 (centres undefined),646 s
12,CC1CCN(C(=O)c2cc3c(s2)CCC(C(=O)O)C3)CC1 (centres undefined),580 s
13,COCc1c(C(=O)O)nnn1-c1ccc2c(c1)OCO2,648 s
14,O=C(CN1C(=O)C(C(=O)N2CCCC2)Sc2ccccc21)NC1CCCCCCC1 (centres undefined),1060 s
15,Cc1nc(OCC(=O)Nc2ccc(Cl)c(Cl)c2)c2ccccc2n1,859 s
16,O=C(CCn1c(N2CCCC2)nc2ccsc2c1=O)NCc1ccccc1F,748 s
17,Cc1noc(C)c1C1CCCN1C(=O)Nc1ccccc1C(F)(F)F (centres undefined),879 s
18,CCN(CC)C(=O)c1ccc2c(c1)nnn2CCNC(=O)Nc1cc(F)ccc1F,714 s
19,CC(C)n1cnc(S(=O)(=O)N2CCCC(C(=O)Nc3ccc(Br)cc3F)C2)c1 (centres undefined),893 s
20,COc1ccc(OCc2nn3c(COc4ccc(F)cc4)nnc3s2)cc1,928 s
21,CC(C)CCNC(=O)C1CCCN(C(=O)c2cc(-c3ccncc3)n[nH]2)C1 (centres undefined),591 s
22,O=c1c(S(=O)(=O)N2CCCCCC2)cccn1Cc1ccccc1F,941 s
23,COCCN1CC2(CCCC2)N(Cc2ccc(C(C)C)cc2)CC1=O,690 s

row,SMILES,RP-LC retention time
1,O=C(Nc1ccc(N2CCOCC2)cc1)c1cn(-c2ccc(F)cc2)nn1,828 s
2,CCOc1ccccc1NC(=O)C1CCCN1S(=O)(=O)c1cc2c(cc1C)NC(=O)C(C)O2 (centres undefined),784 s
3,Cc1ccccc1CNS(=O)(=O)c1c[nH]c2ncccc12,730 s
4,CC(C)(C)NC(=O)c1ccc2nc(-c3ccccc3)cn2c1,783 s
5,COc1ccccc1CCNC(=O)CCCn1cccc1,774 s
6,O=C(NC1CC1)[C@@H]1C[C@H](Oc2cccnc2)CN1C(=O)C1CC1,528 s
7,O=C(NCc1ccsc1)C(=O)Nc1ccon1,665 s
8,CCn1ccc2oc(C)c(C(=O)N3CCN(c4ccc(OC)cc4)CC3)c2c1=O,682 s
9,CC(C)CNC(=O)N1CCc2c(c(-c3nc(-c4ccc(F)cc4)no3)nn2C)C1,940 s
10,COc1ccc(C2(C(=O)N3CCC4(CC3)NCCc3c4[nH]c4ccccc34)CC2)cc1,681 s
11,COc1ccc2sc(OC3CCN(C(=O)c4cnn(-c5ccccc5)n4)CC3)nc2c1,1140 s
12,CCCn1cc(S(=O)(=O)Nc2cccc(CC)c2)c2cccnc21,943 s
13,CCc1nc2cc(-c3noc(-c4nn(C)c5ccccc45)n3)ccc2o1,1130 s
14,CCN(CC)c1nc2ccsc2c(=O)n1CCC(=O)N1CCN(c2ccccc2)CC1,919 s
15,O=S(=O)(Cc1ccc(-c2nc(-c3ccccc3)no2)o1)c1ccccc1,1010 s
16,COC(=O)c1c(C)[nH]c(C(=O)N2CCC(CC(=O)NCCC(C)C)CC2)c1C,716 s
17,CNC(=O)c1noc([C@@H]2CC(F)(F)CN2C(=O)c2cccn2C)n1,712 s
18,O=C(Nc1ccc2nc3n(c(=O)c2c1)CCCCC3)C(=O)N1CCCC1,684 s
19,CCOC(=O)Cc1csc(NC(=O)c2cc(=O)c3ccccc3o2)n1,754 s
20,O=S(=O)(CCCOc1ccc2c(c1)OCO2)NCCC1=CCCCC1,1000 s
21,CCn1cc(-c2ccc(OC)cc2)cc1C(=O)NC(C)c1cccnc1 (centres undefined),693 s
22,CNC(=O)[C@@H]1CN(C(=O)c2noc(C)c2COC)C[C@H]1c1nc(C)no1,619 s
23,Cc1ccc(Cl)cc1NC(=O)N1CCC(CC(=O)N2CCCCC2)CC1,801 s

row,SMILES,RP-LC retention time
1,O=C(c1nc2ccccc2nc1Cl)N1CCN(c2ccccn2)CC1,597 s
2,COc1ccc(-c2nc3ccc(C)cn3c2Nc2ccc(Cl)cc2)cc1,782 s
3,COc1ccc(OC)c(S(=O)(=O)N2CCCC3(CC2)CNC(=O)O3)c1 (centres undefined),685 s
4,CN(C)C(=O)c1ccc2c(c1)nnn2CCNC(=O)Nc1ccccc1F,638 s
5,CC(C)NC(=O)c1ccc(OCC2CCN(C(=O)c3ccc(C#N)cc3)CC2)cc1,811 s
6,CCOC(=O)c1nc(N(C)C2CCCCC2)c2ccccc2n1,789 s
7,O=C(C1CCCO1)N1CCC(c2cnn(-c3cccc(F)c3)c2)CC1 (centres undefined),792 s
8,Cc1nn(-c2ccccc2)c(C)c1S(=O)(=O)N1CCC(C(=O)NCc2cccs2)CC1,876 s
9,CS(=O)(=O)Nc1ccc(C2(C(=O)NCc3ccccc3Cl)CCCCC2)cc1,946 s
10,COc1ccc(-c2noc(-c3nn(-c4ccc(F)c(F)c4)ccc3=O)n2)cc1OC,835 s
11,Cc1ccc(-c2nc3nc(C)cc(N(C)CCO)n3n2)cc1,638 s
12,COc1cc(Cl)ccc1C(=O)N1CCN(c2cc(-c3cccs3)[nH]n2)CC1,795 s
13,Cc1ccc(C)c(C(=O)N2CCCC(c3nc(CNC(=O)C4CCC4)cs3)C2)c1 (centres undefined),748 s
14,Cc1ccc(NC(=O)CCCn2cccc2)cc1F,874 s
15,O=C1N(c2cccc(F)c2)C(c2ccccc2)C12CCNCC2 (centres undefined),669 s
16,O=C(Cn1cccc1-c1nc(-c2ccccc2)no1)N1CCc2ccccc21,1110 s
17,CNc1cc(C(N)=O)c2cccc(Cl)c2n1,559 s
18,CCOc1ccc(S(=O)(=O)N2CCC(C(=O)NCc3ccncc3)CC2)cc1C,662 s
19,CCOc1ccc(Cc2nnc(SCC(=O)c3ccc(OC)cc3)o2)cc1,938 s
20,Cn1nc(-c2ccc(NC(=O)c3ccc([N+](=O)[O-])cc3Cl)cc2)ccc1=O,714 s
21,CCNc1nc(-c2ccc(Br)cc2)cs1,887 s
22,CCCn1c(C)cnc1C1CN(C(=O)c2cccs2)C1,586 s
23,O=C(NCC1CCCO1)C1CCN(S(=O)(=O)c2cc(-c3noc(C4CCC4)n3)cs2)CC1 (centres undefined),858 s
